One compound from patent publication US20240293425A1, “BZD-1 AS A CHEMO[…] CANCER” (University of Cincinnati, priority 2021, published 2024) can be followed below.

pIC50: −log10 of the molar value. ≈ marks a conversion by molar mass, not a printed value. Where only a bound is given, the exact number is not on record here.

Data set [1] in a line: Solubility in co-solvent injectable formulation. As to conditions: co-solvent based injectable formulation, aqueous with cosolvent or surfactant or cyclodextrin.
Data set [2] can be described thus: Metabolic stability in human liver microsomes. As to conditions: within 1 hr.
The test system of data set [3] is unmethylated GBM lines BT142-GFP and G43. The experiment in a line: Spheroid assay. It is filed as cell-based. The following applies: BZD-1 + TMZ; BT142-GFP and G43 spheroids; qualitative. How it is done: Spheroid assays were carried out using two unmethylated GBM lines: BT142-GFP (FIG. 3A) and G43 (FIG. 3B) to qualitatively assess the effect of BZD-1+TMZ.
Data set [4] in a line: Pharmacokinetics, brain penetration.
The test system of data set [5] is H1792 xenograft tumor. The experiment in a line: H1792 flank xenograft dose response. The format is in vivo, NOD-SCID mice. On the procedure: NOD-SCID mice (3 mice/group) were implanted with 10^6 H1792 cells s.c. in both flanks. When the tumors were palpable (day 11 post implantation), treatment was started and consisted of daily i.p. injections of vehicle (DMSO) or BZD-1 drug dissolved in DMSO for 7 days. Tumor size was measured every other day using a caliper. Tumor volume was calculated as follows: […]
At day 46 post tumor implantation, mice were euthanized following institutional IACUC procedures. Tumors from both flanks were resected, weighed, and average tumor mass for each group was calculated, plotted, and photographed.

Data set [6] has as its system H1792 human lung cancer cells. The experiment in a line: MTS proliferation assay, DTX + 2.5 μM BZD-1. It is filed as cell-based. On the procedure:
10^3 H1792 cells/well in 100 μL of medium were plated in a 96 well plate and allowed to attach for 24 hrs. The next day, large volume of fresh medium containing 2.5 μM BZD-1 was prepared from 40 mM BZD-1 stock in DMSO. For Docetaxel (DTX) dilutions, either fresh medium was used for DTX only or 2.5 μM BZD-1 containing medium was used for DTX+2.5 μM BZD-1 treatment. Medium on cells was then aspirated and replaced by 100 μL of vehicle (DMSO)/drug containing media, with 5 replicated for each control/drug dilution. Cells were returned to the incubator for 48 hours.
For MTS Assay, medium was aspirated and replaced by 100 μL of phenol red free medium. Then 20 μL of MTS reagent (Cell Titer 96 Aqueous Non-Radioactive Cell Proliferation Assay reagent—Promega) was added to each well. The plate was returned to incubator for 1 hour, then OD acquired at 490 nm in a plate reader. OD values were then analyzed, and the graph obtained using GraphPad Prism.
10^3 H1792 cells/well in 100 μL of medium were plated in a 96 well plate and allowed to attach for 24 hrs. […]
For MTS Assay, medium was aspirated and replaced with 100 μL of phenol red free medium. […] The plate was returned to the incubator for 1 hour, then OD acquired at 490 nm in a plate reader. OD values were then analyzed, and the graph obtained using GraphPad Prism.

In data set [7] the test system is H1792 human lung cancer cells. The experiment in a line: MTS proliferation assay, BZD-1 alone. It is filed as cell-based. On the procedure:
10^3 H1792 cells/well in 100 uL of medium were plated in a 96 well plate and allowed to attach for 24 hrs. The next day, BZD-1 (stock, 40 mM in DMSO) was first diluted to 40 μM in fresh cell culture medium, then serially 2-fold diluted. Medium on cells was then carefully aspirated and replaced with 100 μL of vehicle (DMSO)/drug containing medium, with 5 replicated for each control/drug dilution. Cells were returned to the incubator for 48 hours.
For MTS Assay, medium was carefully aspirated and replaced with 100 μL of phenol red free medium. Then 20 μL of MTS reagent (Cell Titer 96 Aqueous Non-Radioactive Cell Proliferation Assay reagent—Promega) was added to each well. The plate was returned to incubator for 1 hour, then OD acquired at 490 nm in a plate reader. OD values were then analyzed, and the graph obtained using GraphPad Prism.
(Formazan colour is commonly taken as a measure of viable cells.)

The test system of data set [8] is rats. The experiment in a line: Visible adverse effects after single dose i.p. As to conditions: 12 hrs after single dose i.p., co-solvent formulation.
In data set [9] the test system is methylated and unmethylated GBM cells. The experiment in a line: In vitro cytotoxicity of GBM cells, BZD-1 and TMZ single or combined. It is filed as cell-based.
Data set [10] has as its system H1792 cells. The experiment in a line: Clonogenic assay, BZD-1 with or without 0.5 nM DTX. The following applies: BZD-1 + 0.5 nM DTX, 12 days. It is filed as cell-based, human. On the procedure: 300 H1792 cells/well in 3 mL of medium were plated in a 6 well plate and allowed to attach for 36 hrs. A large volume of fresh medium containing 0.5 nM Docetaxel (DTX) was prepared from 1 mM stock in DMSO. For BZD-1 dilution, either fresh medium or +0.5 nM DTX containing medium was used. Medium on cells was then aspirated and replaced by 3 mL of vehicle (DMSO)/Drug containing media in triplicate for each control/drug dilution. Cells were returned to the incubator for 12 days. For staining, medium was aspirated, cells were washed 1× with PBS and fixed 15 minutes with methanol at room temperature. Methanol was then removed, and crystal violet staining solution added to cells and incubated 30 minutes at room temperature. Plates were then washed extensively with tap water, dried and pictured.

Data set [11] in a line: Stability of co-solvent formulation at room temperature. The format is physicochemical.
[12] abbreviates: daily i.p. for 7 days, NOD-SCID mice.

What is called solubility is the concentration that dissolves in the medium under given conditions. A high value points to a readily soluble substance. Broadly, the pIC50 is the negative decadic logarithm of the IC50, by convention in mol/L. Read a high pIC50 as a low IC50. Consider `C#Cc1ccc2c(c1)C(c1ccccc1F)=NCC(=O)N2C` [BZD-1, 7-ethynyl-5-(2-fluorophenyl)-1-methyl-1,3-dihydro-2H-benzo[e][1,4]diazepin-2-one], for which the solubility in data set [1] worked out at 10000 µg/mL (≈ 34.2 mM). The “Breakdown products in human liver microsomes” value in data set [2] was “no breakdown products were found”. The “Spheroid response to combination therapy” value in data set [3] was “significant disaggregation”. In addition, the “Time of penetration into the brain” value in data set [4] (brain) was at most 5 min. The “Accumulation in brain extracellular fluid” value in [4] (brain extracellular fluid) was found to be 161.3 ng/mL. Moreover, in data set [5] (setting [12]), the Most effective dose stood at 2.5 mg/kg and the “Tumor volume compared to vehicle” value is on record as “reduced tumor volume”. In data set [5] (doses higher than 2.5 mg/kg), the “Sedation in the animal model” value is given as “sedating”. Further, the “Effect on docetaxel cytotoxicity” value in [6] (2.5 μM BZD-1 + DTX, 48 hours, MTS) is reported as “potentiates the cytotoxic effect of docetaxel”. Moreover, the “Combination Index (CI)” value in data set [6] (BZD-1 combined with DTX, H1792 cell growth in vitro) is listed as 0.6. Further, the “Proliferation of H1792 cells” value in data set [7] (48 hours, in vitro) is on record as “inhibits proliferation”. In [7] (Homo sapiens, NCI-H1792, 48 hours), the pIC50 is 5.22 to 5.35. For the same compound, the Visible adverse effects result in data set [8] was “no visible adverse effects”. Further, the “Effect of combined therapy on TMZ resistance” value in data set [9] (BZD-1 + TMZ, unmethylated GBM cell lines) is reported as “overcomes TMZ resistance”. For the same compound, the “Synergy of BZD-1 and TMZ (Chou-Talay Combination Index Equation)” value in [9] (BZD-1 in combination with TMZ, GBM cells) is reported as “act synergistically”. Besides, in data set [10], the “Clonogenic growth, combination with docetaxel” value is listed as “work synergistically”. In data set [11], the “Stable at room temperature” value is on record as “up to 6 months”.
